Source: US20190343908A1, “Therapeutic Combination for the Treatment of Cancer” (Nerium Biotechnology Inc., priority 2011, published 2019)

Tests used:
[1] = system: PC3 (human prostate cancer); experiment: Crystal Violet viability assay, PC3; assay type: cell-based
From the text: (§1) Three different viability assays were chosen to complement each other and yielded results dependent on concentration and cell line: the Methyl Tetrazolium dye assay, the Sulforhodamine B fluorescent dye assay, and the Crystal Violet dye assay.
(§2) The Sulforhodamine B and Crystal Violet assays provide information about protein and were used to complement the Methyl-Tetrazolium dye assay. […] It is used for the quantification of cellular proteins of cultured cells. The assay using Crystal Violet, a dye that binds electrostatically to proteins and stains DNA, provides a reliable, simple assay for measuring viability of cells.
(§3) The Methyl Tetrazolium, Sulforhodamine B, and Crystal Violet assays were used to assess cell viabilities. The incubation times were 24 hours, 48 hours, and 72 hours. The Nerium oleander extract Anvirzel™ (a hot water extract of oleander obtained from Salud Integral, Honduras) was tested in concentrations ranging from 0.01 ng/mL to 10 ng/mL.
(§4) Cells were detached by trypsinization (Trypsin-0.25% EDTA, Invitrogen, 25200-072) during the logarithmic phase of culture growth and plated in 96-well plates (18.000 cells/well) (Corning, Costar 359) in a final volume of 200 μl of medium per well. […] The absorbance was measured after 24 hours, 48 hours, and 72 hours of incubation.
(§5) For the Crystal Violet assay, the medium was removed from the 96-well plates, the plates rinsed with PBS (Sigma, P3813) and then the cells were […] by the addition of 10% formalin (MERCK, 1.04003.2500) for 20 minutes at RT. Formalin was removed and 0.25% aqueous crystal violet (Sigma, HT901), dissolved in water, was added for 10 minutes at RT. Unbound Crystal Violet was rinsed by washing with water and finally 33% acetic acid was added to dissolve the dye.
(§6) The optical density of each plate was measured on a μQuant spectrophotometer and the data were analyzed with Gen5 software (μQuant Biomolecular Spectrophotometer MQX200 and Gen5™ Microplate Data Collection & Analysis software, BioTek® Instruments. Inc, April 2008). Absorbance was measured at 570 nm for all assays and a second wavelength was measured in order to subtract noise. For the Methyl-Tetrazolium assay this second wavelength was 630 nm and for the Sulforhodamine B and Crystal Violet assays it was 690 nm.

[2] = system: LNCaP prostate cancer cell line; experiment: Sulforhodamine B viability assay, LNCaP; assay type: cell-based, human; conditions: for ABSORBANCE: LNCaP, 0.1 μg/mL cisplatin
From the text: as §1, §2, §3, §4
For the Sulforhodamine B assay, 96-well plates were fixed by 10% trichloroacetic acid (Fluka, 91228) and were incubated at 4° C. for 1 hour. Afterwards, plates were rinsed with water and cells were stained with 0.4% Sulforhodamine B (Sigma, 341738), dissolved in 1% acetic acid (Carlo Ebra, 401422) for 15 minutes at room temperature (RT). The unbound stain was washed twice with 1% acetic acid. Finally, 10 mM Tris Buffer pH 10.5 (Sigma, T6791) was added to dissolve the dye.
as §6

[3] = system: PANC-1 pancreatic cancer cell line; experiment: Crystal Violet viability assay, PANC-1; assay type: cell-based, human; conditions: for ABSORBANCE: 0.1 μg/mL cisplatin; for CVE 24 h / CVE 48 h / CVE 72 h: Run 1 average
From the text: as §1, §2, §3, §4, §5, §6

Structure (SMILES): N.N.[Cl][Pt][Cl] [cisplatin]
- CVE Average ([1]; PC3 Run 1, 24 h, 0.1 μg/ml CDDP): 0.73
- CVE Average ([1]; PC3 Run 1, 24 h, 1 μg/ml CDDP): 0.368
- CVE Average ([1]; PC3 Run 1, 24 h, 10 μg/ml CDDP): 0.548
- CVE Average ([1]; PC3 Run 1, 24 h, 100 μg/ml CDDP): 0.337
- CVE Average ([1]; PC3 Run 1, 48 h, 0.1 μg/ml CDDP): 0.938
- CVE Average ([1]; PC3 Run 1, 48 h, 1 μg/ml CDDP): 0.483
- CVE Average ([1]; PC3 Run 1, 48 h, 10 μg/ml CDDP): 0.706
- CVE Average ([1]; PC3 Run 1, 48 h, 100 μg/ml CDDP): 0.619
- CVE Average ([1]; PC3 Run 1, 72 h, 0.1 μg/ml CDDP): 1.091
- CVE Average ([1]; PC3 Run 1, 72 h, 1 μg/ml CDDP): 0.415
- CVE Average ([1]; PC3 Run 1, 72 h, 10 μg/ml CDDP): 0.64
- CVE Average ([1]; PC3 Run 1, 72 h, 100 μg/ml CDDP): 0.421
- CVE Average ([1]; PC3 Run 2, 24 h, 0.1 μg/ml CDDP): 0.489
- CVE Average ([1]; PC3 Run 2, 24 h, 1 μg/ml CDDP): 0.238
- CVE Average ([1]; PC3 Run 2, 24 h, 10 μg/ml CDDP): 0.498
- CVE Average ([1]; PC3 Run 2, 24 h, 100 μg/ml CDDP): 0.309
- CVE Average ([1]; PC3 Run 2, 48 h, 0.1 μg/ml CDDP): 0.714
- CVE Average ([1]; PC3 Run 2, 48 h, 1 μg/ml CDDP): 0.393
- CVE Average ([1]; PC3 Run 2, 48 h, 10 μg/ml CDDP): 0.694
- CVE Average ([1]; PC3 Run 2, 48 h, 100 μg/ml CDDP): 0.419
- CVE Average ([1]; PC3 Run 2, 72 h, 0.1 μg/ml CDDP): 0.76
- CVE Average ([1]; PC3 Run 2, 72 h, 1 μg/ml CDDP): 0.284
- CVE Average ([1]; PC3 Run 2, 72 h, 10 μg/ml CDDP): 0.526
- CVE Average ([1]; PC3 Run 2, 72 h, 100 μg/ml CDDP): 0.316
- CVE Average ([1]; PC3 Run 3, 24 h, 0.1 μg/ml CDDP): 0.653
- CVE Average ([1]; PC3 Run 3, 24 h, 1 μg/ml CDDP): 0.551
- CVE Average ([1]; PC3 Run 3, 24 h, 10 μg/ml CDDP): 0.638
- CVE Average ([1]; PC3 Run 3, 24 h, 100 μg/ml CDDP): 0.301
- CVE Average ([1]; PC3 Run 3, 48 h, 0.1 μg/ml CDDP): 0.599
- CVE Average ([1]; PC3 Run 3, 48 h, 1 μg/ml CDDP): 0.4
- CVE Average ([1]; PC3 Run 3, 48 h, 10 μg/ml CDDP): 0.599
- CVE Average ([1]; PC3 Run 3, 48 h, 100 μg/ml CDDP): 0.367
- CVE Average ([1]; PC3 Run 3, 72 h, 0.1 μg/ml CDDP): 0.927
- CVE Average ([1]; PC3 Run 3, 72 h, 1 μg/ml CDDP): 1.001
- CVE Average ([1]; PC3 Run 3, 72 h, 10 μg/ml CDDP): 0.666
- CVE Average ([1]; PC3 Run 3, 72 h, 100 μg/ml CDDP): 0.282
- SRB Average ([2]; LNCaP Run 3, 24 h, 0.1 μg/ml CDDP): 1.975
- SRB Average ([2]; LNCaP Run 3, 24 h, 1 μg/ml CDDP): 1.541
- SRB Average ([2]; LNCaP Run 3, 24 h, 10 μg/ml CDDP): 1.242
- SRB Average ([2]; LNCaP Run 3, 24 h, 100 μg/ml CDDP): 1.2
- SRB Average ([2]; LNCaP Run 3, 48 h, 0.1 μg/ml CDDP): 1.761
- SRB Average ([2]; LNCaP Run 3, 48 h, 1 μg/ml CDDP): 1.56
- SRB Average ([2]; LNCaP Run 3, 48 h, 10 μg/ml CDDP): 1.46
- SRB Average ([2]; LNCaP Run 3, 48 h, 100 μg/ml CDDP): 1.284
- SRB Average ([2]; LNCaP Run 3, 72 h, 0.1 μg/ml CDDP): 2.009
- SRB Average ([2]; LNCaP Run 3, 72 h, 1 μg/ml CDDP): 1.584
- SRB Average ([2]; LNCaP Run 3, 72 h, 10 μg/ml CDDP): 1.561
- SRB Average ([2]; LNCaP Run 3, 72 h, 100 μg/ml CDDP): 1.421
- ABSORBANCE ([2]; 48 h): 1.681
- ABSORBANCE ([2]; 72 h): 1.766
- Average SRB 24 h ([2]; Run 1, 0.1 μg/ml CDDP): 1.611
- Average SRB 48 h ([2]; Run 1, 0.1 μg/ml CDDP): 2.798
- Average SRB 72 h ([2]; Run 1, 0.1 μg/ml CDDP): 2.532
- Average SRB 24 h ([2]; Run 1, 1 μg/ml CDDP): 1.294
- Average SRB 48 h ([2]; Run 1, 1 μg/ml CDDP): 2.888
- Average SRB 72 h ([2]; Run 1, 1 μg/ml CDDP): 2.483
- Average SRB 24 h ([2]; Run 1, 10 μg/ml CDDP): 1.205
- Average SRB 48 h ([2]; Run 1, 10 μg/ml CDDP): 2.893
- Average SRB 72 h ([2]; Run 1, 10 μg/ml CDDP): 2.648
- Average SRB 24 h ([2]; Run 1, 100 μg/ml CDDP): 1.2
- Average SRB 48 h ([2]; Run 1, 100 μg/ml CDDP): 2.555
- Average SRB 72 h ([2]; Run 1, 100 μg/ml CDDP): 2.649
- Average SRB 24 h ([2]; Run 2, 0.1 μg/ml CDDP): 1.78
- Average SRB 48 h ([2]; Run 2, 0.1 μg/ml CDDP): 1.681
- Average SRB 72 h ([2]; Run 2, 0.1 μg/ml CDDP): 1.766
- Average SRB 24 h ([2]; Run 2, 1 μg/ml CDDP): 1.495
- Average SRB 48 h ([2]; Run 2, 1 μg/ml CDDP): 1.14
- Average SRB 72 h ([2]; Run 2, 1 μg/ml CDDP): 1.396
- Average SRB 24 h ([2]; Run 2, 10 μg/ml CDDP): 0.982
- Average SRB 48 h ([2]; Run 2, 10 μg/ml CDDP): 1.077
- Average SRB 72 h ([2]; Run 2, 10 μg/ml CDDP): 1.28
- Average SRB 24 h ([2]; Run 2, 100 μg/ml CDDP): 0.985
- Average SRB 48 h ([2]; Run 2, 100 μg/ml CDDP): 1.138
- Average SRB 72 h ([2]; Run 2, 100 μg/ml CDDP): 1.25
- ABSORBANCE ([3]; PANC-1, 48 h): 0.753
- ABSORBANCE ([3]; PANC-1, 72 h): 0.872
- Average CVE ([3]; PANC-1, Run 2, 24 h, 0.1 μg/ml CDDP): 0.793
- Average CVE ([3]; PANC-1, Run 2, 24 h, 1 μg/ml CDDP): 0.456
- Average CVE ([3]; PANC-1, Run 2, 24 h, 10 μg/ml CDDP): 0.602
- Average CVE ([3]; PANC-1, Run 2, 24 h, 100 μg/ml CDDP): 0.345
- Average CVE ([3]; PANC-1, Run 2, 48 h, 0.1 μg/ml CDDP): 0.575
- Average CVE ([3]; PANC-1, Run 2, 48 h, 1 μg/ml CDDP): 0.249
- Average CVE ([3]; PANC-1, Run 2, 48 h, 10 μg/ml CDDP): 0.33
- Average CVE ([3]; PANC-1, Run 2, 48 h, 100 μg/ml CDDP): 0.323
- Average CVE ([3]; PANC-1, Run 2, 72 h, 0.1 μg/ml CDDP): 0.839
- Average CVE ([3]; PANC-1, Run 2, 72 h, 1 μg/ml CDDP): 0.514
- Average CVE ([3]; PANC-1, Run 2, 72 h, 10 μg/ml CDDP): 0.49
- Average CVE ([3]; PANC-1, Run 2, 72 h, 100 μg/ml CDDP): 0.385
- Average CVE ([3]; PANC-1, Run 3, 24 h, 0.1 μg/ml CDDP): 0.476
- Average CVE ([3]; PANC-1, Run 3, 24 h, 1 μg/ml CDDP): 0.457
- Average CVE ([3]; PANC-1, Run 3, 24 h, 10 μg/ml CDDP): 0.698
- Average CVE ([3]; PANC-1, Run 3, 24 h, 100 μg/ml CDDP): 0.428
- Average CVE ([3]; PANC-1, Run 3, 48 h, 0.1 μg/ml CDDP): 0.753
- Average CVE ([3]; PANC-1, Run 3, 48 h, 1 μg/ml CDDP): 0.395
- Average CVE ([3]; PANC-1, Run 3, 48 h, 10 μg/ml CDDP): 0.218
- Average CVE ([3]; PANC-1, Run 3, 48 h, 100 μg/ml CDDP): 0.18
- Average CVE ([3]; PANC-1, Run 3, 72 h, 0.1 μg/ml CDDP): 0.872
- Average CVE ([3]; PANC-1, Run 3, 72 h, 1 μg/ml CDDP): 0.358
- Average CVE ([3]; PANC-1, Run 3, 72 h, 10 μg/ml CDDP): 0.421
- Average CVE ([3]; PANC-1, Run 3, 72 h, 100 μg/ml CDDP): 0.253
- CVE 24 h ([3]; 0.1 μg/ml CDDP): 0.324
- CVE 48 h ([3]; 0.1 μg/ml CDDP): 0.717
- CVE 72 h ([3]; 0.1 μg/ml CDDP): 0.676
- CVE 24 h ([3]; 1 μg/ml CDDP): 0.125
- CVE 48 h ([3]; 1 μg/ml CDDP): 0.429
- CVE 72 h ([3]; 1 μg/ml CDDP): 0.262
- CVE 24 h ([3]; 10 μg/ml CDDP): 0.191
- CVE 48 h ([3]; 10 μg/ml CDDP): 0.466
- CVE 72 h ([3]; 10 μg/ml CDDP): 0.337
- CVE 24 h ([3]; 100 μg/ml CDDP): 0.153
- CVE 48 h ([3]; 100 μg/ml CDDP): 0.381
- CVE 72 h ([3]; 100 μg/ml CDDP): 0.28
